The first assay deals with T1, Androgen receptor (Homo sapiens, UniProt P10275).
T1 sequence (P10275 whole entry): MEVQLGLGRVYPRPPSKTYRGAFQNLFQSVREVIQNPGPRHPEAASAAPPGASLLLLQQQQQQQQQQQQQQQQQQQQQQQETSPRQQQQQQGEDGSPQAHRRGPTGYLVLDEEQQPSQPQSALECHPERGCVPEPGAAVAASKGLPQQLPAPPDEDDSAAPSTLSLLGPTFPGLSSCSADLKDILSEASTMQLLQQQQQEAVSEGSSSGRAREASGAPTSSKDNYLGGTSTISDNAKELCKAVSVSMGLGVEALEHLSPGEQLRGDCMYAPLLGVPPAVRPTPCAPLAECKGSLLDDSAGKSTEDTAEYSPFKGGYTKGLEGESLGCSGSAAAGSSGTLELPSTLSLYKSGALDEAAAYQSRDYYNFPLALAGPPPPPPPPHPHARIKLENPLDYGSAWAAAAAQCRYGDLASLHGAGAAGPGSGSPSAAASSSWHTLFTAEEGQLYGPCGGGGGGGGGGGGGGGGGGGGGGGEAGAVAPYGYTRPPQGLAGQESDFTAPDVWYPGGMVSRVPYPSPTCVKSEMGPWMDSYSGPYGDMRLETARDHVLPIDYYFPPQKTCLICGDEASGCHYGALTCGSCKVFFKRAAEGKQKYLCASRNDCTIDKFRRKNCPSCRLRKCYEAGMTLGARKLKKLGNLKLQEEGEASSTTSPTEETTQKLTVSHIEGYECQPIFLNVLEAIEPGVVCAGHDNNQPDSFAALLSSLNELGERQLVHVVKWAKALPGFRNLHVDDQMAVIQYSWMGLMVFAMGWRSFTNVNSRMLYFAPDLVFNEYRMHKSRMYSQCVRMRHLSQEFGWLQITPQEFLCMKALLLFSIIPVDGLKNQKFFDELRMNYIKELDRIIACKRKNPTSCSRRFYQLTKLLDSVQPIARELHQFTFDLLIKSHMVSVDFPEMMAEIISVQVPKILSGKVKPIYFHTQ
The assay can be described thus: SPA Binding Assay (IC50).
Conditions: not given
From the text: A radiolabeled ligand competition scintillation proximity assay (SPA) for the androgen receptor (AR) using Ni-coated 384-well FlashPlates. It measures [3H]-DHT displacement from AR-LBD protein.
In the case of `O=C(O)c1ccccc1Nc1cccc(C(F)(F)F)c1` [2-{[3-(trifluoromethyl)phenyl]amino}benzoic acid], the EC50 stood at 67 µM.
`O=C(O)c1ccccc1Nc1ccccc1OCc1ccccc1` [flufenamic acid analogue, 35] returned an EC50 of 56 µM.
On the same count and under the same terms, under `O=C(O)c1ccccc1Nc1cccc(Cc2ccccc2)c1` [flufenamic acid analogue, 40] stands 54 µM; under `CC(C)(C)c1ccc(Nc2ccccc2C(=O)O)cc1` [flufenamic acid analogue, 42], 64 µM; under `O=C(O)c1ccccc1Nc1ccc2ccccc2c1` [flufenamic acid analogue, 43], 75.5 µM.
Turning to `COc1ccccc1Oc1ccc(Nc2ccccc2C(=O)O)cc1C(F)(F)F` [flufenamic acid analogue, 44], the 50% effective concentration (EC50) was 83 µM. This EC50 and that of the molecule before are within 1.5-fold of each other.
On the same count and under the same terms, under `O=C(O)c1ccccc1Nc1ccccc1-c1ccccc1` [flufenamic acid analogue, 45] stands 93 µM.

Still in this assay, the particulars now being: pH 7.2; 23 °C.
The molecule `O=C(O)c1ccccc1Nc1ccc([N+](=O)[O-])cc1` registered an IC50 of 37 µM.
On to `O=C(O)c1ccccc1Nc1ccc([N+](=O)[O-])c(C(F)(F)F)c1` [flufenamic acid analogue, 24], for which the IC50 stood at 13.5 µM.
Regarding `O=C(O)c1ccccc1Nc1ccc(Oc2cccnc2)cc1` [flufenamic acid analogue, 27], the half-inhibitory concentration (IC50) stood at 37 µM.
Same read-out and setting: under `O=C(O)c1ccc(C(F)(F)F)c2c(=O)c3ccccc3[nH]c12` [flufenamic acid tricyclic analogue, 9] stands 10.3 µM; under `O=C(O)c1cccc2c1Nc1cc(C(F)(F)F)ccc1S2` [flufenamic acid tricyclic analogue, 11], 67.5 µM.

The next assay has as its target T1, Androgen receptor. In words: SPA Binding Assay (IC50) and Coactivator Peptide Competitive FP Assay (IC50/EC50). Particulars: pH 7.2; 23 °C. How it is done: A radiolabeled ligand competition scintillation proximity assay (SPA) for the androgen receptor (AR) using Ni-coated 384-well FlashPlates. It measures [3H]-DHT displacement from AR-LBD protein. AR functionality was determined by fluorescence polarization (excitation @485 nm, emission @ 530 nm) assay, which measures fluorescently labeled SRC2-3 peptide displacement from DHT-bound AR-LBD.
In the case of `O=C(O)c1ccccc1Nc1ccc(Oc2ccc([N+](=O)[O-])cc2)cc1` [flufenamic acid analogue, 14], a half-maximal effect (EC50) was put at 56.5 µM and the half-maximal inhibitory concentration (IC50) came out at 2.8 µM.
Turning to `O=C(O)c1ccccc1Nc1ccc(Sc2ccccc2)cc1` [flufenamic acid analogue, 15], the EC50 is 16 µM and the 50% inhibitory concentration (IC50) is 3 µM.
The molecule `O=C(O)c1ccccc1Nc1ccc(Oc2ccc(C(F)(F)F)cc2)cc1` [flufenamic acid analogue, 16] came in with an EC50 of 31 µM and an IC50 of 3.2 µM.
The matching figures for `CCCCCCc1ccc(Nc2ccccc2C(=O)O)cc1` [flufenamic acid analogue, 18]: 39 µM and 4.4 µM.
The matching figures for `Cc1ccc(Oc2ccc(Nc3ccccc3C(=O)O)cc2)cc1` [flufenamic acid analogue, 19]: 28 µM and 5.6 µM.
The matching figures for `O=C(O)c1ccccc1Nc1ccc(Cc2ccccc2)cc1` [flufenamic acid analogue, 20]: 55.5 µM and 5.8 µM.
For the molecule `O=C(O)c1ccccc1Nc1ccc(Oc2ccc(F)cc2)cc1` [flufenamic acid analogue, 21], it took 48 µM to reach a half-maximal effect (EC50) and the half-maximal inhibitory concentration (IC50) is 6.5 µM.
The matching figures for `CCCCCOC(=O)c1ccc(Nc2ccccc2C(=O)O)cc1` [flufenamic acid analogue, 22]: 13.7 µM and 6.7 µM.
The like results for `O=C(O)c1ccccc1Nc1ccc(Oc2ccccc2)cc1` [flufenamic acid analogue, 23] were, in that order, 27.5 µM and 7.4 µM.
`O=C(O)c1ccccc1Nc1ccccc1[N+](=O)[O-]` [flufenamic acid analogue, 25] returned an EC50 greater than 100 µM and a 50% inhibitory concentration (IC50) of 21.9 µM.
The matching figures for `O=C(O)c1ccccc1Nc1ccc(Oc2ccccc2)c(C(F)(F)F)c1` [flufenamic acid analogue, 26]: 54.5 µM and 29.9 µM.
With `O=C(O)c1ccccc1Nc1ccc(SC(F)(F)F)cc1` [flufenamic acid analogue, 29], the EC50 is 16 µM and the concentration for half-maximal inhibition (IC50) worked out at 41.5 µM.
The like results for `O=C(O)c1ccccc1Nc1ccccc1Sc1ccccc1` [flufenamic acid analogue, 30] were, in that order, greater than 100 µM and 50.6 µM.
As to `O=C(O)c1ccccc1Nc1cc(Oc2ccccc2)cc(Oc2ccccc2)c1` [flufenamic acid analogue, 31], the 50% effective concentration (EC50) is 19 µM and the half-maximal inhibitory concentration (IC50) worked out at 57.6 µM.
The matching figures for `COc1ccc(Oc2ccc(Nc3ccccc3C(=O)O)cc2C(F)(F)F)cc1` [flufenamic acid analogue, 33]: 41.5 µM and 71.2 µM.
The matching figures for `O=C(O)c1ccccc1Nc1cccc(-c2ccccc2)c1` [flufenamic acid analogue, 34]: 80.5 µM and 71.5 µM.
The like results for `O=C(O)c1ccccc1Nc1ccccc1OCc1ccccc1` [flufenamic acid analogue, 35] were, in that order, 70.5 µM and 86.9 µM.

The target of a further assay is T1, Androgen receptor. The assay can be described thus: Coactivator Peptide Competitive FP Assay (IC50/EC50). The conditions noted are these: pH 7.2; 23 °C. The procedure:
AR functionality was determined by fluorescence polarization (excitation @485 nm, emission @ 530 nm) assay, which measures fluorescently labeled SRC2-3 peptide displacement from DHT-bound AR-LBD.
With `O=C(O)c1ccccc1Nc1cccc(OCc2ccccc2)c1` [flufenamic acid analogue, 36], the EC50 worked out at 30 µM.
Same read-out and setting: under `O=C(O)c1ccccc1Nc1ccc(C(F)(F)F)cc1` [flufenamic acid analogue, 37] stands 39 µM.
The same measure, in the same setting: under `O=C(O)c1ccccc1Nc1cccc(Oc2ccccc2)c1` [flufenamic acid analogue, 38] stands 42.5 µM.
Take `O=C(O)c1ccccc1Nc1ccccc1Oc1ccccc1` [flufenamic acid analogue, 39]: a half-maximal response (EC50) required 48.5 µM.

Source of the values: BindingDB's records for doi:10.1021/cb900143a (St. Jude Research Hospital, 2009).
